Measurements as given in article PMC7873477, “Fermentative Production of L-2-Hydroxyglutarate by Engineered Corynebacterium glutamicum via Pathway Extension of L-Lysine Biosynthesis” (Frontiers in Bioengineering and Biotechnology, 2021).

Experiments:
[1] = target: T1, CsiD (HPGluA) (Pseudomonas putida, UniProt Q88IU0); assay: L-2HG formation by engineered C. glutamicum, HPLC of supernatant; assay type: cell-based; details: whole cells, endogenously formed glutarate; Fe(II) and 2-oxoglutarate dependent; 96 h
T1 construct: gene glaH; untagged, from pVWEx1-ldcC-csiD(Pp) in C. glutamicum GSLA2G; whole-cell production
T1 sequence (Q88IU0 1-325): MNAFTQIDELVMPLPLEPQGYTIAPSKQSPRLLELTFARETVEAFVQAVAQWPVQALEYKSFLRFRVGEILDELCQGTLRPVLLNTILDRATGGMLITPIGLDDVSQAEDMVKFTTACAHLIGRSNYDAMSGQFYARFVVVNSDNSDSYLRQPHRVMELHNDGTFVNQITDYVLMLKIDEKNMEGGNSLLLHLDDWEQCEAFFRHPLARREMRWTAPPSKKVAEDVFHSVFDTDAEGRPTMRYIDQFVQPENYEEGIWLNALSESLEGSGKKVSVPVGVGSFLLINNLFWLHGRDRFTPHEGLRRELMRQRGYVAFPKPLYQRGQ

[2] = target: T2, CsiD (HEGluA) (Escherichia coli, UniProt P76621); assay: as above; assay type: cell-based, Corynebacterium glutamicum; details: whole cells, endogenously formed glutarate; Fe(II) and 2-oxoglutarate dependent; 96 h
T2 construct: gene glaH; untagged, from pVWEx1-ldcC-csiD(Ec) in C. glutamicum GSLA2G; whole-cell production
T2 sequence (P76621 1-325): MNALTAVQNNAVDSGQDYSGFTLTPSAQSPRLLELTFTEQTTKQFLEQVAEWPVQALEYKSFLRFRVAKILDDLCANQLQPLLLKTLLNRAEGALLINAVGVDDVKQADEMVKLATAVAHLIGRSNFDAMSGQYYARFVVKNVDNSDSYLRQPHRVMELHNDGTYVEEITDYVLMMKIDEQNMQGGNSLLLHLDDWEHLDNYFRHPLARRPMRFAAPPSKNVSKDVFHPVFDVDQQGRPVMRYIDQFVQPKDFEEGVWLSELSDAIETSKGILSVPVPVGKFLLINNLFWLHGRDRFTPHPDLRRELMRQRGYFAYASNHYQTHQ

O=C(O)CCCC(=O)O [glutarate]
L-2HG formation by engineered C. glutamicum, HPLC of supernatant [1]: the three strains produced and secreted L-2HG | L-2HG formation by engineered C. glutamicum, HPLC of supernatant [2]: the three strains produced and secreted L-2HG
